Results taken from ChEMBL document CHEMBL5465560, “Selectivity Literature for EUbOPEN Chemogenomic Library” (2024).

What was measured:
[1] = molecular target: T1, Ephrin type-B receptor 2 (Homo sapiens) (UniProt P29323); test: Selectivity interaction (KinomeScan (DiscoverX)) EUB0000045b EPHB2
T1 sequence (whole entry): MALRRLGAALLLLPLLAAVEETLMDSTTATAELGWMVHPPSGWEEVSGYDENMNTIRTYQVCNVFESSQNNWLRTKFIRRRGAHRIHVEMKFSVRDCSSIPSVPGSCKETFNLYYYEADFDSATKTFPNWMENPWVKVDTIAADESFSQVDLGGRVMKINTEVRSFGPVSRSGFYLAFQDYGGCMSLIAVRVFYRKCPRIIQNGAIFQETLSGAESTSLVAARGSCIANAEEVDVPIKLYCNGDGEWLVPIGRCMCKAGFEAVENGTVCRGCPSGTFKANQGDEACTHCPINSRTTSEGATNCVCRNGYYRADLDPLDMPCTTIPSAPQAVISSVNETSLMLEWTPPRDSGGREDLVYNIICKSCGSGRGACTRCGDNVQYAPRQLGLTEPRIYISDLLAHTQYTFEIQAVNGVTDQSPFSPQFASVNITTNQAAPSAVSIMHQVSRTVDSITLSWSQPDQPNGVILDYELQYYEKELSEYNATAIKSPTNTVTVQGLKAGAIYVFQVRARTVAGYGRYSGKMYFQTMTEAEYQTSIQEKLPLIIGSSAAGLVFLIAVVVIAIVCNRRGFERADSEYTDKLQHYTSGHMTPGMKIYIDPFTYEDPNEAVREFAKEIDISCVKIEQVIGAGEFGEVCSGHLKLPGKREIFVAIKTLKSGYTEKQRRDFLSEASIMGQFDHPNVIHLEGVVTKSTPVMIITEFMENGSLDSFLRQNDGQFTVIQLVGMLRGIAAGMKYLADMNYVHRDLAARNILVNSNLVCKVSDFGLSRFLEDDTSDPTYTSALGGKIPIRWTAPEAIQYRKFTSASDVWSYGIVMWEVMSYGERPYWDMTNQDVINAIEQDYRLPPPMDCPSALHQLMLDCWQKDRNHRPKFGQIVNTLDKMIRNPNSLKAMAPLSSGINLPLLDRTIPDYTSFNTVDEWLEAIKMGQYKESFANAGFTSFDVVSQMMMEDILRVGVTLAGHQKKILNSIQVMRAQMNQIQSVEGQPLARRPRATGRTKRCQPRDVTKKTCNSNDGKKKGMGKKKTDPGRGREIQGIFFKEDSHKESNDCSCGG

[2] = molecular target: T2, Serine/threonine-protein kinase Sgk1 (Homo sapiens) (UniProt O00141); test: Selectivity interaction (Kinase screening (Nanosyn)) EUB0000604a SGK1
T2 sequence (whole entry): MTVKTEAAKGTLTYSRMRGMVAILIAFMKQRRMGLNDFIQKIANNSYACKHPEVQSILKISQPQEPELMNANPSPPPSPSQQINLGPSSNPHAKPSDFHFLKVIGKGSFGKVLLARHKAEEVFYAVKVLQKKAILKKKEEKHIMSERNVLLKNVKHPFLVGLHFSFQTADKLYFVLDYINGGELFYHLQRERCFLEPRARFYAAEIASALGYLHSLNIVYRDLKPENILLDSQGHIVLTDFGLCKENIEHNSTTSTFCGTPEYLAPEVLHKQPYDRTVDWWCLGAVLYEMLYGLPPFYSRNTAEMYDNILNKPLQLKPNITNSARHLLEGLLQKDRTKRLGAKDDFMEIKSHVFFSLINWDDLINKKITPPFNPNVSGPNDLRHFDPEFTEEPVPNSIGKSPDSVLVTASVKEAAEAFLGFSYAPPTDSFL

[3] = molecular target: Macrophage-stimulating protein receptor (Homo sapiens, UniProt Q04912); test: Selectivity interaction (KinomeScan (DiscoverX)) EUB0001049a MST1R; details: at 1 µM
[4] = molecular target: Cyclin-dependent kinase 16 (Homo sapiens) (UniProt Q00536); test: Selectivity interaction (ActivX KiNativ screen (ex vivo kinase selectivity in human PBMCs)) EUB0001619a CDK16; format: cell-based; details: PBMC, at 1 µM
[5] = molecular target: T3, Phosphatidylinositol 5-phosphate 4-kinase type-2 beta (Homo sapiens) (UniProt P78356); test: Selectivity interaction (ActivX KiNativ screen (ex vivo kinase selectivity in human PBMCs)) EUB0001619a PIP4K2B; format: cell-based; details: PBMC, at 1 µM
T3 sequence (whole entry): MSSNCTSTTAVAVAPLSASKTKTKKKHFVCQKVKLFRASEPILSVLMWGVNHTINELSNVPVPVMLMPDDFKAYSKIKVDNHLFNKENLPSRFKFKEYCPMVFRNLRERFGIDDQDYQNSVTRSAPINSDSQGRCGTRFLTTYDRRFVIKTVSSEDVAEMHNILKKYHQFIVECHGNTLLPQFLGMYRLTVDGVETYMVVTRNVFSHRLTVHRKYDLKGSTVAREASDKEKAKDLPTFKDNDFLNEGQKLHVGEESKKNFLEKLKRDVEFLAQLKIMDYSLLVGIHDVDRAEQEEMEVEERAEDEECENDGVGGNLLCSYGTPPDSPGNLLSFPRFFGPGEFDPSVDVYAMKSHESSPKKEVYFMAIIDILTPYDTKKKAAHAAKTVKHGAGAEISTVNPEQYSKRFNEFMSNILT

[6] = molecular target: Insulin receptor-related protein (Homo sapiens) (UniProt P14616); test: Selectivity interaction (KinomeScan (DiscoverX)) EUB0000618a INSRR; details: at 10 µM
[7] = molecular target: Tyrosine-protein kinase BTK (Homo sapiens, UniProt Q06187); test: Selectivity interaction (ActivX KiNativ screen (kinase selectivity in THP-1 cell lysates)) EUB0000639a BTK; format: subcellular; details: lysate, at 0.04 µM
[8] = molecular target: Mitogen-activated protein kinase 14 (Homo sapiens, UniProt Q16539); details: at 10 µM
Sequence of Mitogen-activated protein kinase 14 (Q16539 whole entry): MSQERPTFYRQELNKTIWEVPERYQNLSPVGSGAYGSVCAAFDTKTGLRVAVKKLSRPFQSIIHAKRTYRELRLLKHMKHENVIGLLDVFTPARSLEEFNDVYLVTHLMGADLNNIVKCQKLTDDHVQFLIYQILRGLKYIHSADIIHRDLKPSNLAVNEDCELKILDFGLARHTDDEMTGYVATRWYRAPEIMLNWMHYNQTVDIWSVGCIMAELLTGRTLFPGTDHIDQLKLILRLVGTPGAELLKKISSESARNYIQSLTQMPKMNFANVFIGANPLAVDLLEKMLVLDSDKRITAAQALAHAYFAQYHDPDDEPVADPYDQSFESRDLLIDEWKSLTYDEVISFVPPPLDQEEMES

Sequence of Cyclin-dependent kinase 16 (Homo sapiens) (Q00536 whole entry): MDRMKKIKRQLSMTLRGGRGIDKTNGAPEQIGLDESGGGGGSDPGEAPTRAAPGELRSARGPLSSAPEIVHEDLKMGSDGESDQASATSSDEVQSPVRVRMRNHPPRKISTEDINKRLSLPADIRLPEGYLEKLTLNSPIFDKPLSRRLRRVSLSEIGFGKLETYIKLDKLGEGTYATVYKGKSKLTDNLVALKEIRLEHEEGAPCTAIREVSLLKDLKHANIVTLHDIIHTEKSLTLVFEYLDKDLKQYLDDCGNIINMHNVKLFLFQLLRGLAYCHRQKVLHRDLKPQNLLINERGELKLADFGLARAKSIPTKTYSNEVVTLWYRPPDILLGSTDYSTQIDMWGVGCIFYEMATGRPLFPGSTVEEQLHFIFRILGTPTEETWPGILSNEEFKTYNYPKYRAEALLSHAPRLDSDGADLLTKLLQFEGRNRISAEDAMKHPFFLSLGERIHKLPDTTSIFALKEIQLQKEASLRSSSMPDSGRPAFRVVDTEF
Sequence of Macrophage-stimulating protein receptor (Q04912 25-304 limits assumed): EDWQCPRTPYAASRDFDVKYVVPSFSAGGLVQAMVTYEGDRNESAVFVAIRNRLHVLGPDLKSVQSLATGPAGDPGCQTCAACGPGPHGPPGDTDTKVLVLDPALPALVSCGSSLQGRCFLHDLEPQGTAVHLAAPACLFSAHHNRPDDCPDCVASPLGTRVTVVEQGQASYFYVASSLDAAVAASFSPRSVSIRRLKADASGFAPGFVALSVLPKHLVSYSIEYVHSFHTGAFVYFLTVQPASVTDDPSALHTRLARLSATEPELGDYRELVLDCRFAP
Sequence of Macrophage-stimulating protein receptor (Q04912 310-1400 limits assumed): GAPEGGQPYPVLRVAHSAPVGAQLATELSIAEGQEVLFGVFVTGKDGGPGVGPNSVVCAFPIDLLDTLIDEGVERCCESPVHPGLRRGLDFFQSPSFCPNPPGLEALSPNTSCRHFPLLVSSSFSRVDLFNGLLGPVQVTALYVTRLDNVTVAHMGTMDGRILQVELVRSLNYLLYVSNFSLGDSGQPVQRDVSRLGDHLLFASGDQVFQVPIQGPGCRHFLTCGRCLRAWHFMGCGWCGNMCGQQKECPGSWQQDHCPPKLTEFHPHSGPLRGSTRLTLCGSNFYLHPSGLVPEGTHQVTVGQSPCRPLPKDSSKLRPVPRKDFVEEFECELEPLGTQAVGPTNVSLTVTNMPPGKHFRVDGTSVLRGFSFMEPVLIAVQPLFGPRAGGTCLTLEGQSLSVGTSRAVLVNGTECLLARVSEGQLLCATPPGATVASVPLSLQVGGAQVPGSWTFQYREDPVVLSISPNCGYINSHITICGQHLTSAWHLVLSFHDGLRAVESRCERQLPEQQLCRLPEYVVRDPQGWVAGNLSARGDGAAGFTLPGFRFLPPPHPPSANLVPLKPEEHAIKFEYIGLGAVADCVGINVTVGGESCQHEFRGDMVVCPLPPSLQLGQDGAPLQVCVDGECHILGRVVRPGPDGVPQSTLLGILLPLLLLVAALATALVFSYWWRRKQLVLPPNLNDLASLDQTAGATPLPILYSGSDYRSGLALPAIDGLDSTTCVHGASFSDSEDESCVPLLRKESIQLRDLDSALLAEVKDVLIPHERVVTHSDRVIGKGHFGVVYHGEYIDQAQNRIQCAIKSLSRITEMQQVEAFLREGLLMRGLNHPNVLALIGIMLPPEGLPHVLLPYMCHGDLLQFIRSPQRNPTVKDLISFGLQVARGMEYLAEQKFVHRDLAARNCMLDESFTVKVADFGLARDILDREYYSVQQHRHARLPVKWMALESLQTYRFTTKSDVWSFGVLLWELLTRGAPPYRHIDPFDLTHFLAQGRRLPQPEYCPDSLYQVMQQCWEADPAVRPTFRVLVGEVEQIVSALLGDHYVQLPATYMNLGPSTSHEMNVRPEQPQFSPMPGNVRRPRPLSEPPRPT
Sequence of Tyrosine-protein kinase BTK (Q06187 whole entry): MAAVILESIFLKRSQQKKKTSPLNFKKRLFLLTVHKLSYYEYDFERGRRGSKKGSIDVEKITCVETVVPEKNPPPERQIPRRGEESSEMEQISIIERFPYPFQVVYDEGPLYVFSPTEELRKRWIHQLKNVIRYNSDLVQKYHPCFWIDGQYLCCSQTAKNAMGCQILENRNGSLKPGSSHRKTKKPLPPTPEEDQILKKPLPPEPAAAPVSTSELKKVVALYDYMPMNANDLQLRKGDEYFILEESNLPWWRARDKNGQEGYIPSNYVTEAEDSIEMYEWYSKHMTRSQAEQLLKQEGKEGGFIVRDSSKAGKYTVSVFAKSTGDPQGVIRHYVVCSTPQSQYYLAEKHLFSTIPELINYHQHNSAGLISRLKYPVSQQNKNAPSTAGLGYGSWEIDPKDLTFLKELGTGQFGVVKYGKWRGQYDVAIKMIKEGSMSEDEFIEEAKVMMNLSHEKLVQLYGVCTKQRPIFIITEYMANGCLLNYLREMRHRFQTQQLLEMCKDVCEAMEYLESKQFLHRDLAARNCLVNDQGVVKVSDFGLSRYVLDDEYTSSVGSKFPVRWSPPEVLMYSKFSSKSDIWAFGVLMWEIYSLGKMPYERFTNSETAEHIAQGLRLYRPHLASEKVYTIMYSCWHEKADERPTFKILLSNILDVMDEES
Sequence of Insulin receptor-related protein (Homo sapiens) (P14616 27-742 limits assumed): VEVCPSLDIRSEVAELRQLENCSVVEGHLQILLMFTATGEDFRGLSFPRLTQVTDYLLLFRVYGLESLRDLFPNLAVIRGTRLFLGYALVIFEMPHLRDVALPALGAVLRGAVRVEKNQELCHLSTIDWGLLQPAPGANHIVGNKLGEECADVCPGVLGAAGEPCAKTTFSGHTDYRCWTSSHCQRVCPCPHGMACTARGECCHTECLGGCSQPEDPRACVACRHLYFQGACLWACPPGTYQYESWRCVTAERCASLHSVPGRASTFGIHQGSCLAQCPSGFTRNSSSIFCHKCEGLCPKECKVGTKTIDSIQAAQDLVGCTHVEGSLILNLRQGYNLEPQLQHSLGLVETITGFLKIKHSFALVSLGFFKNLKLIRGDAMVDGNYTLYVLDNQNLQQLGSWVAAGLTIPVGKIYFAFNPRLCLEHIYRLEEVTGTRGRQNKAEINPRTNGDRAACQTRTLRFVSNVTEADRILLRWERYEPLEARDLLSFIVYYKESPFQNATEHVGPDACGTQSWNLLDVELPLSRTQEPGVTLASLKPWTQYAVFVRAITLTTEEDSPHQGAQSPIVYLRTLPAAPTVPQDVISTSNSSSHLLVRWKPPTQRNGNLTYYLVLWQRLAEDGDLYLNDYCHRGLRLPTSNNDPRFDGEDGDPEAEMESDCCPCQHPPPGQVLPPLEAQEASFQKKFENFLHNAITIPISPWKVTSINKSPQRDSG
Sequence of Insulin receptor-related protein (Homo sapiens) (P14616 747-1297 limits assumed): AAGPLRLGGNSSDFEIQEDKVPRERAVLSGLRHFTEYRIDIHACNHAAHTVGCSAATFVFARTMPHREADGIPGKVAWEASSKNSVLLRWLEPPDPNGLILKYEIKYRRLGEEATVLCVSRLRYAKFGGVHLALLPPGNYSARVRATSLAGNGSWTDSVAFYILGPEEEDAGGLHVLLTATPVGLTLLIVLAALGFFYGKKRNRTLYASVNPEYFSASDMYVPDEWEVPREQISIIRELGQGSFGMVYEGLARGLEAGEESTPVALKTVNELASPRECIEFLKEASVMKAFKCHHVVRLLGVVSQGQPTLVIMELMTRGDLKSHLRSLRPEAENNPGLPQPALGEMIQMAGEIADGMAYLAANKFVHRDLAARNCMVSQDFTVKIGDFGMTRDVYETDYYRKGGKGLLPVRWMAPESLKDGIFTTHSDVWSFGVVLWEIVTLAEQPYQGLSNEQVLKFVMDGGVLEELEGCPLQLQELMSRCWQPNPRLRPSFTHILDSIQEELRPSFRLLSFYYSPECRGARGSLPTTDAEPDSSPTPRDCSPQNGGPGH

`C=CC(=O)Nc1cc(-n2c(=O)ccc3cnc4ccc(-c5ccc(NS(C)(=O)=O)cc5)cc4c32)ccc1C` gave a % of control ([1]; at 1 µM) of 80% and a % of control ([1]; at 10 µM) of 95%.

For `Cc1cnc(Nc2ccc(F)cc2Cl)nc1-c1c[nH]c(C(=O)N[C@H](CO)c2cccc(Cl)c2)c1`, the % of inhibition [2] was 15%.

In the case of `COc1cc(Nc2nc(C)cc(-c3cnn4nc(OC)ccc34)n2)cc(C(F)(F)F)c1`, the % of control [3] is reported as 94%.

For `N#Cc1cccc(-c2c[nH]c3ncnc(N4CCOCC4)c23)c1`, the % of inhibition [4] was 25% and the % of inhibition [5] was 15%.

`O[C@H]1CC[C@H](Nc2ncc3nc(Nc4c(F)cc(F)cc4F)n([C@H]4CCOC4)c3n2)CC1` gave a % of control [6] of 100%.

For `CC[C@@H]1[C@H](F)C(=O)N[C@@H]1COc1nccc2cc(C(N)=O)c(OC)cc12` [ZIMLOVISERTIB], the % of inhibition [7] was -17.7%.

`CCN(CC)CCCCNc1ncc2cc(-c3cc(OC)cc(OC)c3)c(NC(=O)NC(C)(C)C)nc2n1` showed a % of control [8] of 100%.
